Patent US11208396B2, “Oxime compounds as agonists of the muscarinic M1 and/or M4 receptor” (Heptares Therapeutics Limited, priority 2015, dated 2021)

Legend:
Format in all cases: cell-based
[1] = target: T1, human muscarinic M1 receptor (Homo sapiens, UniProt P11229); assay: Alphascreen Surefire phospho-ERK1/2 functional assay, M1; conditions: for % Emax cf. ACh, M1 / Emax: Emax compared with ACh; for EC50: read-out: pEC50 M1 (converted); for Emax: CHO, read-out: % Emax cf. ACh, M1, CHO cells stably expressing human M1
T1 sequence (P11229 1-460): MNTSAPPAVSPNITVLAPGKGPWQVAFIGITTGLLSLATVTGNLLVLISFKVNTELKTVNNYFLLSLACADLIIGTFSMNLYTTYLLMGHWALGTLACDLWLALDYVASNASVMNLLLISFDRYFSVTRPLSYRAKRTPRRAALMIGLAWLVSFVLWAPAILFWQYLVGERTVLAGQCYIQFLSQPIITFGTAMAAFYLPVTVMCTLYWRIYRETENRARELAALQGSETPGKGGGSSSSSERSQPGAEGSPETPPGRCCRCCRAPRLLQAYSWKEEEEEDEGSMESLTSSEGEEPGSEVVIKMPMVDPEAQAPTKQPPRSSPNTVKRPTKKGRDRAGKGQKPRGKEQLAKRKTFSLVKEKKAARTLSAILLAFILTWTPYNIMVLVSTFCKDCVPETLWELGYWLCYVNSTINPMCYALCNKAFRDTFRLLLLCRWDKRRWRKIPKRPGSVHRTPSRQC
Procedure: (§1) ERK1/2 phosphorylation is a downstream consequence of both Gq/11 and Gi/o protein coupled receptor activation, making it highly suitable for the assessment of M1, M3 (Gq/11 coupled) and M2, M4 receptors (Gi/o coupled), rather than using different assay formats for different receptor subtypes. CHO cells stably expressing the human muscarinic M1, M2, M3 or M4 receptor were plated (25K/well) onto 96-well tissue culture plates in MEM-alpha+10% dialysed FBS. Once adhered, cells were serum-starved overnight. Agonist stimulation was performed by the addition of 5 μL agonist to the cells for 5 min (37° C.). Media was removed and 50 μL of lysis buffer added. After 15 min, a 4 μL sample was transferred to 384-well plate and 7 μL of detection mixture added. Plates were incubated for 2 h with gentle agitation in the dark and then read on a PHERAstar plate reader.
(§2) pEC50 and Emax figures were calculated from the resulting data for each receptor subtype.

[2] = target: T2, human muscarinic M2 receptor (Homo sapiens, UniProt P08172); assay: Alphascreen Surefire phospho-ERK1/2 functional assay, M2; conditions: for % Emax cf. ACh, M2 / pEC50 M2 / EC50: CHO cells stably expressing human M2; for % Emax cf. ACh, M2 / Emax: Emax compared with ACh; for pEC50 M2 / EC50: agonist 5 min, 37° C.; for EC50: read-out: pEC50 M2 (converted); for Emax: CHO, read-out: % Emax cf. ACh, M2, CHO cells stably expressing human M2
T2 sequence (P08172 1-466): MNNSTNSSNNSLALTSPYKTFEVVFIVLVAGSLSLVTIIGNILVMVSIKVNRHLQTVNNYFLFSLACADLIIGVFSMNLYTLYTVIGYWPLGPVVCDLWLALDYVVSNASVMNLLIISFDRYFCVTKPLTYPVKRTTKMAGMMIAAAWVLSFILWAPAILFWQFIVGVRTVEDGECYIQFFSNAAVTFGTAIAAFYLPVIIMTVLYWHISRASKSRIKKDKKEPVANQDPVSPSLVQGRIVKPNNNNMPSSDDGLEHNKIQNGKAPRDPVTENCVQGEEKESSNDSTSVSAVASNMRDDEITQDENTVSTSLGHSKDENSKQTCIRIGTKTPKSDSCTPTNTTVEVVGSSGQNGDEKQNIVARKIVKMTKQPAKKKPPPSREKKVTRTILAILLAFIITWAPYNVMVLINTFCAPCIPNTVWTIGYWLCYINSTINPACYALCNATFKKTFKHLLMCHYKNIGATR
Procedure: as §1, §2

[3] = target: T3, human muscarinic M3 receptor (Homo sapiens, UniProt P20309); assay: Alphascreen Surefire phospho-ERK1/2 functional assay, M3; conditions: for % Emax cf. ACh, M3 / pEC50 M3 / EC50: CHO cells stably expressing human M3; for % Emax cf. ACh, M3 / Emax: Emax compared with ACh; for pEC50 M3 / EC50: agonist 5 min, 37° C.; for EC50: read-out: pEC50 M3 (converted); for Emax: CHO, read-out: % Emax cf. ACh, M3, CHO cells stably expressing human M3
T3 construct: expressed in transfected cells
Procedure: as §1, §2

[4] = target: T4, human muscarinic M4 receptor (Homo sapiens, UniProt P08173); assay: Alphascreen Surefire phospho-ERK1/2 functional assay, M4; conditions: for % Emax cf. ACh, M4 / EC50 / pEC50 M4: CHO cells stably expressing human M4; for % Emax cf. ACh, M4 / Emax: Emax compared with ACh; for EC50 / pEC50 M4: agonist 5 min, 37° C.; for EC50: read-out: pEC50 M4 (converted); for Emax: CHO, read-out: % Emax cf. ACh, M4, CHO cells stably expressing human M4
T4 construct: expressed in transfected cells
T4 sequence (P08173 1-479): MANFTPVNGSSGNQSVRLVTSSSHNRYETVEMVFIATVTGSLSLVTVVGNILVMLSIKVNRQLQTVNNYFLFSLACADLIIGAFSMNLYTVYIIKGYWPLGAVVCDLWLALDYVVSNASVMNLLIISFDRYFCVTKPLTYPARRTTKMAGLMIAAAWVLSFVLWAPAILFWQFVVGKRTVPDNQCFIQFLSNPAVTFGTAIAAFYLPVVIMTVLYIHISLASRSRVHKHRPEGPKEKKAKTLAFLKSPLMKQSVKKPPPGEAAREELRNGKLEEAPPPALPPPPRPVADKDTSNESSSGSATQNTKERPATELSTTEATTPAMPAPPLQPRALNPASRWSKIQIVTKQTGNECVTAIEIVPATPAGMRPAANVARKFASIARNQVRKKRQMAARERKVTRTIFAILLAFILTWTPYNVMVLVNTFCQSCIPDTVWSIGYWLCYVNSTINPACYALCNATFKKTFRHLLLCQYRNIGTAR
Procedure: as §1, §2

[5] = CHO cells stably expressing human M1
[6] = CHO cells stably expressing human M1, agonist 5 min, 37° C.

T3 sequence (P20309 whole entry): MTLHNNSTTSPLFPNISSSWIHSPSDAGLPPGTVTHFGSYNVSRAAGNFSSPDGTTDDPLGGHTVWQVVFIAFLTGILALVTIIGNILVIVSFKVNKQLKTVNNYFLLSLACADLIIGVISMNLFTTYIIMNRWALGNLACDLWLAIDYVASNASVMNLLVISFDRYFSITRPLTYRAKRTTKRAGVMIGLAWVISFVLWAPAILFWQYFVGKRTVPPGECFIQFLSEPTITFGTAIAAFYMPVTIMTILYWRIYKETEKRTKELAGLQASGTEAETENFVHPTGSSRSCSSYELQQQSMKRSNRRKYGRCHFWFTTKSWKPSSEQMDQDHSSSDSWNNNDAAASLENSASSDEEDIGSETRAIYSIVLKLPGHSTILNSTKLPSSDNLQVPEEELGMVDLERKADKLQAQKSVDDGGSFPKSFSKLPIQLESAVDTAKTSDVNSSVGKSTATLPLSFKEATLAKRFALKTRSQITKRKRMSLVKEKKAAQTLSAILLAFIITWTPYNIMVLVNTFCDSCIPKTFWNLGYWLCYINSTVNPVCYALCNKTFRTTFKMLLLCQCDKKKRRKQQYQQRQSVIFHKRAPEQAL

| % Emax cf. ACh, M1 [1, 5] | EC50 [1, 6] | % Emax cf. ACh, M2 [2] | pEC50 M2 [2] | % Emax cf. ACh, M3 [3] | pEC50 M3 [3] | % Emax cf. ACh, M4 [4] | EC50 [4] | EC50 [2] | Emax [2] | EC50 [3] | Emax [3] | Emax [1] | Emax [4] | pEC50 M1 [1, 6] | pEC50 M4 [4] | Compound |
| --- | --- | --- | --- | --- | --- | --- | --- | --- | --- | --- | --- | --- | --- | --- | --- | --- |
| 83% | 398 nM | 7% | < 4.7 | 1% | < 4.7 | 94% | 25.1 nM | – | – | – | – | – | – | – | – | CCOC(=O)N1CCCC(N2CCC(C(CC)=NOC)CC2)CC1 (single isomer, unassigned) [1-2 Isomer 2 (racemic)] |
| 92% | 63.1 nM | – | – | – | – | 83% | 50.1 nM | > 20000 nM | 21% | > 20000 nM | 17% | – | – | – | – | CCCC(=NOC)C1CCN(C2CCCN(C(=O)OCC)CC2)CC1 (single isomer, unassigned) [1-3 Isomer 2 (racemic)] |
| – | 398 nM | 24% | – | – | – | – | 50.1 nM | > 20000 nM | – | > 20000 nM | 5% | 87% | 115% | – | – | CCOC(=O)N1CCCC(N2CCC(C(=NOC)C(C)C)CC2)CC1 (single isomer, unassigned) [1-4 Isomer 1 (racemic)] |
| 95% | 316 nM | 7% | – | 6% | – | 107% | 31.6 nM | > 15800 nM | – | > 15800 nM | – | – | – | – | – | CCOC(=O)N1CCCC(N2CCC(C(=NOC)C(C)C)CC2)CC1 (single isomer, unassigned) [1-4 Isomer 2 (racemic)] |
| 105% | – | 22% | < 4.7 | 4% | < 4.7 | 104% | – | – | – | – | – | – | – | 6.5 | 7.5 | CCOC(=O)N1CCCC(N2CCC(C(=NOC)C(C)C)CC2)CC1 (single isomer, unassigned) [1-5 Isomer 2 (racemic)] |
| – | 39.8 nM | – | – | – | – | – | 126 nM | > 20000 nM | 10% | > 20000 nM | 16% | 96% | 65% | – | – | CCOC(=O)N1CCCC(N2CCC(C(CCC(C)C)=NOC)CC2)CC1 (single isomer, unassigned) [1-6 Isomer 2 (racemic)] |
| 99% | 158 nM | – | – | – | – | 97% | 63.1 nM | > 20000 nM | 19% | > 20000 nM | 6% | – | – | – | – | CCCON=C(CC)C1CCN(C2CCCN(C(=O)OCC)CC2)CC1 (single isomer, unassigned) [1-11 Isomer 2 (racemic)] |
| 98% | 100 nM | 5% | – | 6% | – | 80% | 63.1 nM | > 20000 nM | – | > 20000 nM | – | – | – | – | – | CCOC(=O)N1CCCC(N2CCC(C(CC)=NOC(C)C)CC2)CC1 (single isomer, unassigned) [1-12 Isomer 1 (racemic)] |
| 72% | 316 nM | 2% | < 4.7 | 1% | < 4.7 | 101% | 25.1 nM | – | – | – | – | – | – | – | – | CCOC(=O)N1CCCC(N2CCC(C(CC)=NOC(C)C)CC2)CC1 (single isomer, unassigned) [1-12 Isomer 2 (racemic)] |
| – | 200 nM | – | – | – | – | – | 63.1 nM | > 20000 nM | 71% | > 20000 nM | 9% | 89% | 68% | – | – | CCOC(=O)N1CCC2(CC(N3CCC(C(C)=NOC)CC3)C2)C1 (single isomer, unassigned) [2-1 Mixture of isomers 2] |
| 5% | > 20000 nM | 7% | – | 2% | – | 67% | 50.1 nM | > 20000 nM | – | > 20000 nM | – | – | – | – | – | CCOC(=O)N1CCC2(CC(N3CCC(C(CC)=NOC)CC3)C2)C1 (single isomer, unassigned) [2-2 Isomer 3] |
| 59% | 200 nM | 69% | < 4.7 | 18% | < 4.7 | 105% | 20 nM | – | – | – | – | – | – | – | – | CCOC(=O)N1CCC2(CC(N3CCC(C(CC)=NOC)CC3)C2)C1 (single isomer, unassigned) [2-2 Isomer 4] |
| – | 158 nM | – | – | – | – | – | 25.1 nM | > 20000 nM | 15% | > 20000 nM | 7% | 87% | 77% | – | – | CCCC(=NOC)C1CCN(C2CC3(CCN(C(=O)OCC)C3)C2)CC1 (single isomer, unassigned) [2-3 Isomer 4] |
| 49% | 501 nM | – | – | – | – | 62% | – | > 20000 nM | 7% | > 20000 nM | 0% | – | – | – | 6.7 | CCOC(=O)N1CCC[C@H](N2CCC(C(C)=NOC)CC2)CC1 (single isomer, unassigned) [(S)-1-1 Isomer 2] |
| – | > 20000 nM | 11% | – | – | – | – | 63.1 nM | > 20000 nM | – | > 20000 nM | 9% | 21% | 81% | – | – | CCOC(=O)N1CCC[C@H](N2CCC(C(CC)=NOC)CC2)CC1 (single isomer, unassigned) [(S)-1-2 Isomer 1] |
| 36% | 501 nM | 5% | < 4.7 | 7% | < 4.7 | 81% | 50.1 nM | – | – | – | – | – | – | – | – | CCOC(=O)N1CCC[C@H](N2CCC(C(CC)=NOC)CC2)CC1 (single isomer, unassigned) [(S)-1-2 Isomer 2] |
| – | 251 nM | – | – | – | – | – | 25.1 nM | > 20000 nM | 7% | > 20000 nM | 0% | 93% | 126% | – | – | CCCC(=NOC)C1CCN([C@H]2CCCN(C(=O)OCC)CC2)CC1 (single isomer, unassigned) [(S)-1-3 Isomer 2] |
